Experimental data reported in patent US20110262508A1, “ANTIMICROBIAL COMPOSITIONS, FORMULATIONS AND USES THEREOF” (priority 2007, published 2011).
≈ marks a conversion by molar mass, not a printed value. Square brackets hold non-standard residues; d marks the D form. Peptide text beside a SMILES is read from it. * marks the point of attachment. Biotin = O=C1N[C@H]2[C@H](CS[C@H]2CCCCC(=O)*)N1

Experiments:
A. baumannii [1] = assay: A. baumannii lung infection in mice, cell counts in lungs; format: in vivo, C57B1/6 mice
Protocol: Groups of C57B1/6 mice that have been ear-tagged for identification are used. Freshly-prepared inocula of A. baumannii are prepared from cultures of A. baumannii passaged four times through mice, and cultures are grown with agitation at 37° C. in Nutrient broth to an OD600 value of approximately 0.3 units. Cells are collected by centrifugation at room temperature for 20 mins (5,500 rpm using a GA-10 rotor) and resuspended in 10 ml sterile PBS at room temperature. This wash is repeated once. The cell pellet is then resuspended in 0.5 ml PBS to an approximate concentration of 2.5×10^9 c.f.u./ml. Animals are inoculated intranasally 40 μl inoculum (approximately 1×10^8 c.f.u.) using a sterile 200 μl capacity pipette tip having approximately 3 mm removed from the end. The precise time of inoculation is recorded for each animal. Peptides are administered intravenously e.g., after 3 hr, in 200 μl aliquots of a 200 μM peptide solution in PBS.
At 5.5 hr post-inoculation (taking into account staggered inoculation times), both lung lobes are removed from the animals, homogenised in 0.9 ml PBS and plated on MHB plates at 1×10^−3 dilution, 1×10^−4 dilution and 1×10^−5 dilution in PBS. Following incubation periods sufficient to grow colonies, cells are counted.

A. baumannii [2] = format: cell-based
Outline: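 Laboratory strains and 50 clinical isolates of A. baumannii were tested by CLSI broth microdilution, with serially diluted peptide (0.1-64 μg) and about 1×10^5 C.F.U. per well, incubated aerobically overnight at 35±2° C. MIC was read visually. MBC came from subculturing clear wells, as ≥99.9% inoculum reduction.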

human RBC = assay: Hemolysis of RBC; format: cell-based
Protocol: Varying amounts of peptide were incubated with the washed RBC for one hour at room temperature. Intact cells were pelleted by gentle centrifugation, and hemolysis of each sample was determined by absorption measurement at 450 nm. A positive control sample consisted of RBC lysed by the addition of 0.1% Triton, for which hemolysis was also determined by absorption measurement at 450 nm. Percentages of lysed RBC incubated with peptide were then calculated by the ratio of absorbances at 450 nm for the sample relative to the absorbance at 450 nm of the positive control sample. The MHC10 value was calculated as the minimum peptide concentration to induce 10% cell lysis.

[3] = Cytotoxicity against Jurkat cells (CellTiter Blue); format: cell-based, human; conditions: human
Protocol: (§1) The cytotoxicities of selected peptides against human T-lymphocytes, in particular Jurkat cells, was determined by growing 100 uL Jurkat cells in RPMI (approx. 5×10^5 cells/ml density) overnight at 37° C. under 5% CO2 atmosphere, in microtiter plate wells, in the presence and absence of peptides. Control reactions either lacked peptide (negative cytotoxicity control), or contained a buffer to completely lyse Jurkat cells (positive cytotoxicity control). The viabilities of cells were then determined by addition of 20 uL CellTiter Blue dye (Promega) to each well, and incubation of cells for a further 3 hrs at 37° C. Fluorescence values were measured for 1 sec at 540 nm/615 nm, and expressed relative to fluorescence values for negative and positive cytotoxicity control samples. Comparison with a fully lysed control allowed the calculation of a percentage killing for each peptide concentration. The MCC10 value was calculated as the minimum peptide concentration required to induce 10% cytotoxicity.

Jurkat cells = assay: Cytotoxicity against Jurkat cells (CellTiter Blue); format: cell-based, human
Protocol: as §1

[4] = system: Escherichia coli strain BL21; format: cell-based; conditions: summary of Table 6
Protocol: Synthetic peptides were tested for their ability to inhibit bacterial growth in liquid culture. […] 19606, Acinetobacter spp. ATCC 17903, Acinetobacter spp. ATCC 19004, Escherichia coli strain BL21, S. aureus, S. typhimurium strain AroA, P. aeruginosa or P. pneumotropica. After 5-6 hours of shaking at 37° C., growth was measured as absorbance at 595 nm. As a control, cultures were grown in the presence of 0.1% acetonitrile (i.e., the concentration present in 10 μM peptide).

Compound	MIC (μM) for non-amidated Peptide (A. baumannii [2])	MHC10 (human RBC)	cytotoxicity at 12.5 μM [3]	cytotoxicity at 25 μM [3]	cytotoxicity at 50 μM [3]	MCC10 (Jurkat cells)	also measured
CC[C@@H](C)[C@@H](NC(=O)[C@@H](CCCNC(=N)N)NC(=O)[C@@H](C)NC(=O)[C@@H](CC(C)C)NC(=O)[C@@H](CCCNC(=N)N)NC(=O)[C@@H](CCCNC(=N)N)NC(=O)CCCC[C@@H]1SC[C@@H]2NC(=O)N[C@@H]21)C(=O)N[C@H](CCCCN)C(=O)N[C@H](CO)C(=O)N[C@H](CC(C)C)C(=O)N[C@H](CC(C)C)C(=O)N[C@H](CCC(N)=O)C(=O)N[C@H](CCCNC(=N)N)C(=O)N[C@H](CS)C(=O)N[C@@H](C(=O)N[C@H](C)C(=O)N[C@H](Cc1ccccc1)C(=O)N[C@H](Cc1ccccc1)C(=O)N[C@H](CO)C(=O)N[C@H](Cc1c[nH]cn1)C(=O)N[C@H](CC(N)=O)C(=O)N[C@H](Cc1ccc(O)cc1)C(=O)N[C@H](CCCNC(=N)N)C(=O)N[C@@H](C(=O)O)C(C)C)C(C)C [Ac13r] (Biotin-[dR][dR][dL][dA][dR][dI][dK][dS][dL][dL][dQ][dR][dC][dV][dA][dF][dF][dS][dH][dN][dY][dR][dV]-OH; N-terminus and C-terminus assumed)	1.25 to 2.5 µM	~15 µM	0%	3%	39%	30 µM	trend to reduce A. baumannii infection in the lung (A. baumannii [1]): strong trend; Cell counts in lungs post-treatment, Mouse 2 (A. baumannii [1]; as E41, Mouse 2): 2.6 × 10^5; Cell counts in lungs post-treatment, Mouse 3 (A. baumannii [1]; as E41, Mouse 3): 9.0 × 10^4; Cell counts in lungs post-treatment, Mouse 1 (A. baumannii [1]; peptide i.v. after intranasal A. baumannii, lungs at 5.5 hr post-inoculation, Mouse 1): 1 × 10^4; MIC (μM) for amidated peptide (A. baumannii [2]): 1.25 to 2.5 µM
tachyplesin-1 [reference compound]							inhibition of growth of E. coli [4]: inhibited growth of E. coli significantly
CC[C@H](C)[C@H](NC(=O)[C@H](C)NC(=O)[C@H](CC(N)=O)NC(=O)[C@H](CS)NC(=O)[C@H](CS)NC(=O)CCCC[C@@H]1SC[C@@H]2NC(=O)N[C@@H]21)C(=O)N[C@H](C(=O)N[C@@H](Cc1ccc(O)cc1)C(=O)N[C@@H](CCCCN)C(=O)N[C@@H](Cc1c[nH]c2ccccc12)C(=O)N[C@H](C(=O)N[C@@H](CC(C)C)C(=O)N[C@@H](Cc1c[nH]cn1)C(=O)N[C@@H](Cc1ccccc1)C(=O)N[C@@H](Cc1ccccc1)C(=O)N[C@@H](Cc1c[nH]c2ccccc12)C(=O)N[C@@H](CCCNC(=N)N)C(=O)N[C@@H](CCCCN)C(=O)N[C@@H](CCCNC(=N)N)C(=O)N[C@@H](C)C(=O)N[C@@H](Cc1c[nH]c2ccccc12)C(=O)N[C@@H](Cc1ccc(O)cc1)C(=O)N[C@@H](CS)C(=O)N[C@@H](Cc1ccccc1)C(=O)O)[C@@H](C)CC)[C@@H](C)CC [Ac228] (Biotin-CCNAIIYKWILHFFWRKRAWYCF-OH; N-terminus and C-terminus assumed)	20 to 25 µM	~10 µM	0%	5%	29%	42 µM	MIC (A. baumannii [2]): 25 µM (≈ 82.4 µg/mL); bactericidal or bacteriostatic against A. baumannii (A. baumannii [2]): bacteriostatic; MBC (μM) (A. baumannii [2]; A. baumannii (Table 8), reduces original inoculum by at least about 99.9%): bacteriostat; haemolytic activity (in words) (human RBC): reproducibly higher haemolytic activities; Percent hemolysis at 5 μM peptide (human RBC; red cells of human, 5): 2.6%; Percent hemolysis at 10 μM peptide (human RBC; red cells of human, 10): 11.0%; Percent hemolysis at 20 μM peptide (human RBC; red cells of human, 20): 9.9%; Percent hemolysis at 40 μM peptide (human RBC; red cells of human, 40): 22.9%; Percent hemolysis at 60 μM peptide (human RBC; red cells of human, 60): 40.1%; Percent hemolysis at 80 μM peptide (human RBC; red cells of human, 80): 80.4%; Percent hemolysis at 100 μM peptide (human RBC; red cells of human, 1 h, 100): 97.1%

Now from value to compound, other results behind:

MIC (μM) for non-amidated Peptide (A. baumannii [2])	Compound	MHC10 (human RBC)	cytotoxicity at 12.5 μM [3]	cytotoxicity at 25 μM [3]	cytotoxicity at 50 μM [3]	MCC10 (Jurkat cells)	also measured
12.5 µM	CC(C)C[C@H](NC(=O)[C@H](CC(=O)O)NC(=O)[C@H](CO)NC(=O)CCCC[C@@H]1SC[C@@H]2NC(=O)N[C@@H]21)C(=O)NCC(=O)N[C@@H](CCCCN)C(=O)N[C@@H](CO)C(=O)NCC(=O)N[C@@H](C)C(=O)NCC(=O)N[C@@H](Cc1c[nH]c2ccccc12)C(=O)N[C@@H](CCCNC(=N)N)C(=O)N[C@@H](Cc1c[nH]c2ccccc12)C(=O)N[C@@H](CCCNC(=N)N)C(=O)N[C@@H](C)C(=O)N[C@@H](CS)C(=O)N[C@@H](CC(N)=O)C(=O)N[C@H](C(=O)N[C@@H](CC(C)C)C(=O)N[C@@H](CO)C(=O)N[C@@H](CCCCN)C(=O)N[C@@H](CS)C(=O)N[C@@H](CCCNC(=N)N)C(=O)NCC(=O)O)[C@@H](C)O [Ac378] (Biotin-SDLGKSGAGWRWRACNTLSKCRG-OH; N-terminus and C-terminus assumed)	50 µM	0%	0%	35%	30 µM	
15 µM	CC[C@H](C)[C@H](NC(=O)[C@H](Cc1c[nH]cn1)NC(=O)[C@H](CO)NC(=O)[C@H](CC(C)C)NC(=O)[C@H](CS)NC(=O)[C@H](CS)NC(=O)[C@H](CCCNC(=N)N)NC(=O)[C@H](CCSC)NC(=O)[C@@H](NC(=O)[C@@H]1CCCN1C(=O)[C@H](CCC(N)=O)NC(=O)[C@H](Cc1c[nH]cn1)NC(=O)[C@H](CS)NC(=O)CCCC[C@@H]1SC[C@@H]2NC(=O)N[C@@H]21)[C@@H](C)O)C(=O)N[C@@H](CCCNC(=N)N)C(=O)N[C@@H](CCCNC(=N)N)C(=O)N[C@@H](CCCNC(=N)N)C(=O)N[C@@H](Cc1ccccc1)C(=O)N[C@@H](CCCNC(=N)N)C(=O)N[C@@H](CC(C)C)C(=O)O [Ac431] (Biotin-CHQPTMRCCLSHIRRRFRL-OH; N-terminus and C-terminus assumed)	25 µM	4%	15%	29%	20 µM	
15 µM	CC[C@H](C)[C@H](NC(=O)[C@H](Cc1ccccc1)NC(=O)[C@H](CC(C)C)NC(=O)[C@H](CCC(N)=O)NC(=O)[C@H](CCCNC(=N)N)NC(=O)[C@H](Cc1ccccc1)NC(=O)[C@H](Cc1ccc(O)cc1)NC(=O)[C@H](CC(C)C)NC(=O)[C@H](Cc1c[nH]c2ccccc12)NC(=O)[C@H](Cc1ccccc1)NC(=O)[C@H](CCCNC(=N)N)NC(=O)[C@H](CCCNC(=N)N)NC(=O)[C@H](CO)NC(=O)[C@H](CC(=O)O)NC(=O)[C@H](CC(C)C)NC(=O)[C@H](Cc1c[nH]c2ccccc12)NC(=O)[C@H](Cc1ccccc1)NC(=O)[C@H](CC(=O)O)NC(=O)[C@H](CCCNC(=N)N)NC(=O)CCCC[C@@H]1SC[C@@H]2NC(=O)N[C@@H]21)C(=O)N[C@@H](Cc1c[nH]cn1)C(=O)N[C@@H](CC(N)=O)C(=O)N1CCC[C@H]1C(=O)N[C@@H](CCCCN)C(=O)O [Ac475] (Biotin-RDFWLDSRRFWLYFRQLFIHNPK-OH)	10 µM	4%	4%	60%	35 µM	
